Laboratory results published in patent US20250288599A1, “PHARMACEUTICAL COMPOSITIONS AND METHODS FOR TREATING OSTEOARTHRITIS” (INSIGNIA PHARMACEUTICALS, LLC, priority 2024, published 2025).

What was measured:
Format in all cases: cell-based
[1] = system: PGE2 release from passage 3 normal human chondrocytes; assay: Rescue versus preincubation regimens, IL-1β-induced PGE2 release from passage 3 normal human chondrocytes; conditions: 25 μM Dec, 28 mM Lac, 10 μM LA, singlet
From the text: The mechanisms of action (MOA) of a drug often dictate the timing and delivery of treatment regimens. While the MOA of compounds disclosed herein continue to be elucidated, experiments were designed to help establish how the drugs should be administered. Furthermore, these experiments will also help with hypothesis generation for subsequent MOA investigations. A low-passage chondrocyte monolayer model was utilized to establish how changes in drug delivery impact the inhibition of IL-1β-induced PGE2 release seen following treatment with the compounds under investigation.
Passage 3 normal human chondrocytes were seeded into tissue culture plates and then tested for compound activity by pre-treating for 24 hours, administering at the same time as activation, or by adding to cells following an overnight activation with IL-1β. Treatment groups included medium control, 25 μM decanoate (Dec), 28 mM D/L sodium Lac, and 10 μM LA. PGE2 release was then evaluated 24- or 96-hours post-activation with percent inhibitions calculated versus plate- and block-matched controls. The experiments were performed in singlet and are intended to be repeated to establish variance.

[2] = system: MMP3 expression in normal human dermal fibroblasts (NHDF); assay: MMP3 mRNA in NHDF activated with IL-1β, 24 h, qRT-PCR; conditions: IL-1β 0.1 ng/ml, 100 mM Lac or 0.1 mM Dxp, IL-1β alone 3.5±1.7
Method: (§1) After 24 hours, total mRNA was isolated and delta-delta Cp relative expression was calculated versus untreated medium controls, normalized to the housekeeping gene, GAPDH. Statistical analysis was then conducted via t-test.

[3] = system: Elastin (ELN) expression in normal human dermal fibroblasts (NHDF); assay: ELN mRNA in NHDF activated with TGF-β1 or IL-1β, 24 h, qRT-PCR; conditions: 100 mM Lac or 0.1 mM Dxp
Method: as §1

## CC(O)C(=O)O (centres unmarked) [Lac, lactate]
[1]; rescue (added after overnight IL-1β activation), 24-hour harvest
  inhibition of PGE2 release: 64%
[1]; rescue, 96-hour harvest
  inhibition of PGE2 release: 27%
[2]
  relative expression of MMP3: 1.5±0.8
[3]; IL-1β 0.1 ng/ml, IL-1β alone 18±12, n=3
  relative expression of ELN: 0.86±3
[3]; TGF-β1 10 ng/ml, TGF-β1 alone 110±35, n=3
  relative expression of ELN: 45+36
